Where “and” joins values, the source holds several entries; their conditions need not be identical. Identical values can stand only once. Like-named read-outs stand apart in the source and are kept apart here.
Key:
[1] = target: T1, human A3 adenosine receptor (Homo sapiens, UniProt P0DMS8); assay: cAMP accumulation at human A3 receptors expressed in CHO cells; type: cell-based
T1 construct: expressed in transfected cells; whole cells for cAMP
T1 sequence (P0DMS8 1-318): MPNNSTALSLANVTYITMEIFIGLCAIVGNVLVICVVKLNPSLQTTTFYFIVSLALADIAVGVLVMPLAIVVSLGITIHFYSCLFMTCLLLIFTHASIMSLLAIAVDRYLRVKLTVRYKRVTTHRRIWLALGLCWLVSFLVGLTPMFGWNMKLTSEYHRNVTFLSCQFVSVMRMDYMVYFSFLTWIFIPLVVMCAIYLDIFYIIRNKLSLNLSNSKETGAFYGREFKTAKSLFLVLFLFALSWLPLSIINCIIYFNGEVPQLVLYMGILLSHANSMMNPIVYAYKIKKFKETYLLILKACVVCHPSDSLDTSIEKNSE
Protocol: Additionally cAMP experiments were conducted at CHO cells recombinantly expressing human A3 or mouse A3 adenosine receptors, respectively.

[2] = Pharmacokinetics of MRS4322 following intravenous administration to neonatal pigs; type: in vivo
Protocol: Animals. Four-week old female neonatal pigs weighing approximately 7.5 Kg were used for this study, supplied by the Department of Bioengineering, University of Pennsylvania (Philadelphia, PA). Animals were equipped with brain microdialysis probes to obtain brain extracellular fluid samples for drug concentration determinations during the study. All studies were conducted under approved University of Pennsylvania IACUC protocols.
Drug Administration: MRS4322 was solubilized in DMSO and then diluted in saline to prepare dosing solution. A 10 mL volume of dosing solution was administered by intravenous bolus administration to each neonatal pig (n=3).
Tissue Sampling: Blood samples were obtained at 0.25, 0.5, 1, 2, 4 and 6 hours post-dose. Brain extracellular fluid samples were obtained from implanted microdialysis probes at 1, 4 and 6 hours post-dose. Whole blood (1 mL) was obtained at each timepoint and placed in vacutainer tubes containing heparin and immediately centrifuged for preparation of plasma; plasma was stored at −80° C. Brain extracellular and cerebrospinal fluid samples were stored at −80° C. At the time of euthanasia (6 hours post-dose), cerebrospinal fluid samples were obtained and frozen, while brain samples from the cortex and hippocampus were obtained by decapitation, rinsed in ice-cold phosphate-buffered saline and weighed. Brain samples were then immediately flash-frozen in liquid nitrogen and stored at −80° C.
The following table outlines the LC and MS/MS conditions employed:
The calibration ranges for all of the MRS4322 matrice's standard curves were 0.1-1000 ng/mL.
For bioanalysis of brain concentrations of MRS4322, brain samples were homogenized in ice-cold phosphate-buffered saline in a 4× dilution. Aliquots of the resulting diluted brain homogenate were treated with acetonitrile and analyzed by LC-MS/MS.

[3] = plasma, MRS4322 0.2 mg/kg IV, individual animals, 0.2 mg/kg

In the case of `CSc1nc(N)c2ncn([C@H]3[C@H](O)[C@H](O)[C@]4(CO)C[C@H]34)c2n1` [MRS4322], the EC50 ([1]; CHO cells stably expressing human A3R, read-out: EC50 ± SEM, Human A3R, cAMP accumulation) is reported as 3.63 ± 0.37 µM, the Emax at 100 µM ([1]; read-out: efficacy at 100 μM concentration in % relative to maximal effect of NECA, Human A3R, 100 μM, cAMP accumulation, CHO cells) is reported as 70% and the “Brain Concentration by Subject” value ([2]; Brain Cortex, MRS4322 0.2 mg/kg IV, 6 h, individual subjects, 0.2 mg/kg) is reported as 3.80 ng/mL and 6.15 ng/mL. The “Brain Concentration by Subject” value ([2]; Brain Hippocampus, MRS4322 0.2 mg/kg IV, 6 h, individual subjects, 0.2 mg/kg) was 4.56 ng/mL and 5.39 ng/mL, the “Cerebro-Spinal Fluid Concentration by Subject” value ([2]; CSF, MRS4322 0.2 mg/kg IV, 6 h, individual subjects, 0.2 mg/kg) was 1.04 ng/mL and 1.75 ng/mL and the “Plasma Concentration by Subject” value ([2]; MRS4322 0.2 mg/kg IV, 0 h, individual subjects) was “BLQ”. For the same compound, the “Plasma Concentration Mean” value ([2]; MRS4322 0.2 mg/kg IV, 0 h, mean) was “BLQ”, the “Plasma Concentration by Subject” value ([2]; MRS4322 0.2 mg/kg IV, 0.25 h, individual subjects, 0.2 mg/kg) was 120 ng/mL and 163 ng/mL and the “Plasma Concentration by Subject” value ([2]; MRS4322 0.2 mg/kg IV, 0.5 h, individual subjects, 0.2 mg/kg) was 54.1 ng/mL and 98.7 ng/mL. For the same compound, the “Plasma Concentration by Subject” value ([2]; MRS4322 0.2 mg/kg IV, 1 h, individual subjects, 0.2 mg/kg) was 51.4 ng/mL and 63.0 ng/mL, the “Plasma Concentration by Subject” value ([2]; MRS4322 0.2 mg/kg IV, 2 h, individual subjects, 0.2 mg/kg) was 27.2 ng/mL and 18.7 ng/mL and 46.8 ng/mL and the “Plasma Concentration by Subject” value ([2]; MRS4322 0.2 mg/kg IV, 4 h, individual subjects, 0.2 mg/kg) was 21.9 ng/mL and 28.7 ng/mL. The “Plasma Concentration by Subject” value ([2]; MRS4322 0.2 mg/kg IV, 6 h, individual subjects, 0.2 mg/kg) was 15.3 ng/mL and 9.08 ng/mL and 20.8 ng/mL, the “Extracellular Fluid Concentration by Subject” value ([2]; brain ECF (microdialysis), MRS4322 0.2 mg/kg IV, 1 h, individual subjects, 0.2 mg/kg) was 1.55 ng/mL and 0.641 ng/mL and 1.70 ng/mL and the “Extracellular Fluid Concentration by Subject” value ([2]; brain ECF, MRS4322 0.2 mg/kg IV, 4 h, individual subjects, 0.2 mg/kg) was 0.693 ng/mL and 0.579 ng/mL and 1.36 ng/mL. For the same compound, the “Extracellular Fluid Concentration by Subject” value ([2]; brain ECF, MRS4322 0.2 mg/kg IV, 6 h, individual subjects, 0.2 mg/kg) was 0.602 ng/mL and 0.459 ng/mL and 1.08 ng/mL, the Kp at 6 h ([2]; female, pig, 0.2 mg/kg, IV, 6 hours post-dose, based on mean concentrations in plasma and brain, read-out: brain/plasma ratio of total drug) was roughly 0.3 and the concentration at 6 h ([2]; female, pig, brain cortex, iv, 0.2 mg/kg, Brain Cortex, MRS4322 0.2 mg/kg IV, 6 h, individual subjects, read-out: Brain Concentration by Subject) was 5.34 ng/mL. For the same compound, the concentration at 6 h ([2]; female, pig, brain cortex, iv, 0.2 mg/kg, Brain Cortex, MRS4322 0.2 mg/kg IV, 6 h, mean, read-out: Brain Concentration Mean) was 5.1 ng/mL, the concentration at 1 h ([2]; female, pig, brain extracellular fluid, iv, 0.2 mg/kg, brain ECF, MRS4322 0.2 mg/kg IV, 1 h, mean, read-out: Extracellular Fluid Concentration Mean) was 1.3 ng/mL and the concentration at 4 h ([2]; female, pig, brain extracellular fluid, iv, 0.2 mg/kg, brain ECF, MRS4322 0.2 mg/kg IV, 4 h, mean, read-out: Extracellular Fluid Concentration Mean) was 0.941 ng/mL. The concentration at 6 h ([2]; female, pig, brain extracellular fluid, iv, 0.2 mg/kg, brain ECF, MRS4322 0.2 mg/kg IV, 6 h, mean, read-out: Extracellular Fluid Concentration Mean) was 0.714 ng/mL, the concentration at 6 h ([2]; female, pig, brain hippocampus, iv, 0.2 mg/kg, Brain Hippocampus, MRS4322 0.2 mg/kg IV, 6 h, individual subjects, read-out: Brain Concentration by Subject) was 6.47 ng/mL and the concentration at 6 h ([2]; female, pig, brain hippocampus, iv, 0.2 mg/kg, Brain Hippocampus, MRS4322 0.2 mg/kg IV, 6 h, mean, read-out: Brain Concentration Mean) was 5.47 ng/mL. It also gave a concentration at 6 h ([2]; female, pig, cerebrospinal fluid, iv, 0.2 mg/kg, CSF, MRS4322 0.2 mg/kg IV, 6 h, individual subjects, read-out: Cerebro-Spinal Fluid Concentration by Subject) of 1.37 ng/mL, a concentration at 6 h ([2]; female, pig, cerebrospinal fluid, iv, 0.2 mg/kg, CSF, MRS4322 0.2 mg/kg IV, 6 h, mean, read-out: Cerebro-Spinal Fluid Concentration Mean) of 1.39 ng/mL and a Tmax ([2]; female, pig, plasma, MRS4322 0.2 mg/kg IV, mean, read-out: Tmax Mean) of 0.25 h. The concentration at 0.25 h ([2]; female, pig, plasma, iv, 0.2 mg/kg, MRS4322 0.2 mg/kg IV, 0.25 h, individual subjects, read-out: Plasma Concentration by Subject) was 133 ng/mL, the concentration at 0.25 h ([2]; female, pig, plasma, iv, 0.2 mg/kg, MRS4322 0.2 mg/kg IV, 0.25 h, mean, read-out: Plasma Concentration Mean) was 139 ng/mL and the concentration at 0.5 h ([2]; female, pig, plasma, iv, 0.2 mg/kg, MRS4322 0.2 mg/kg IV, 0.5 h, individual subjects, read-out: Plasma Concentration by Subject) was 85.3 ng/mL. For the same compound, the concentration at 0.5 h ([2]; female, pig, plasma, iv, 0.2 mg/kg, MRS4322 0.2 mg/kg IV, 0.5 h, mean, read-out: Plasma Concentration Mean) was 79.4 ng/mL, the concentration at 1 h ([2]; female, pig, plasma, iv, 0.2 mg/kg, MRS4322 0.2 mg/kg IV, 1 h, individual subjects, read-out: Plasma Concentration by Subject) was 58.9 ng/mL and the concentration at 1 h ([2]; female, pig, plasma, iv, 0.2 mg/kg, MRS4322 0.2 mg/kg IV, 1 h, mean, read-out: Plasma Concentration Mean) was 57.8 ng/mL. The concentration at 2 h ([2]; female, pig, plasma, iv, 0.2 mg/kg, MRS4322 0.2 mg/kg IV, 2 h, mean) was 30.9 ng/mL, the concentration at 4 h ([2]; female, pig, plasma, iv, 0.2 mg/kg, MRS4322 0.2 mg/kg IV, 4 h, individual subjects, read-out: Plasma Concentration by Subject) was 23.3 ng/mL and the concentration at 4 h ([2]; female, pig, plasma, iv, 0.2 mg/kg, MRS4322 0.2 mg/kg IV, 4 h, mean, read-out: Plasma Concentration Mean) was 24.6 ng/mL. It also gave a concentration at 6 h ([2]; female, pig, plasma, iv, 0.2 mg/kg, MRS4322 0.2 mg/kg IV, 6 h, mean, read-out: Plasma Concentration Mean) of 15.1 ng/mL, a half-life ([2]; female, pig, plasma, iv, 0.2 mg/kg, MRS4322 0.2 mg/kg IV, mean) of 3.42 h and an AUC(0-inf) ([2]; female, pig, plasma, iv, 0.2 mg/kg, plasma, MRS4322 0.2 mg/kg IV, individual animals, read-out: AUCINF) of 344 ng·h/mL. For the same compound, the AUC(0-t) ([2]; female, pig, plasma, iv, 0.2 mg/kg, plasma, MRS4322 0.2 mg/kg IV, individual animals, read-out: AUClast) was 238 ng·h/mL, the C0 ([2]; female, pig, plasma, iv, 0.2 mg/kg, plasma, MRS4322 0.2 mg/kg IV, individual animals, read-out: C0) was 207 ng/mL and the clearance ([2]; female, pig, plasma, iv, 0.2 mg/kg, plasma, MRS4322 0.2 mg/kg IV, individual animals, read-out: Cl) was 9.68 mL/min/kg. It also gave a Cmax ([2]; female, pig, plasma, iv, 0.2 mg/kg, plasma, MRS4322 0.2 mg/kg IV, individual animals, read-out: Cmax) of 133 ng/mL, a Vd ([2]; female, pig, plasma, iv, 0.2 mg/kg, plasma, MRS4322 0.2 mg/kg IV, individual animals, read-out: Vz) of 4.04 L/kg and an AUC(0-inf) ([2]; female, pig, plasma, iv, 0.2 mg/kg, plasma, MRS4322 0.2 mg/kg IV, mean, read-out: AUCINF Mean) of 326 ng·h/mL. It also gave an AUC(0-t) ([2]; female, pig, plasma, iv, 0.2 mg/kg, plasma, MRS4322 0.2 mg/kg IV, mean, read-out: AUClast Mean) of 249 ng·h/mL, a C0 ([2]; female, pig, plasma, iv, 0.2 mg/kg, plasma, MRS4322 0.2 mg/kg IV, mean, read-out: C0 Mean) of 248 ng/mL and a clearance ([2]; female, pig, plasma, iv, 0.2 mg/kg, plasma, MRS4322 0.2 mg/kg IV, mean, read-out: Cl Mean) of 10.8 mL/min/kg. For the same compound, the Cmax ([2]; female, pig, plasma, iv, 0.2 mg/kg, plasma, MRS4322 0.2 mg/kg IV, mean, read-out: Cmax Mean) was 139 ng/mL, the Vd ([2]; female, pig, plasma, iv, 0.2 mg/kg, plasma, MRS4322 0.2 mg/kg IV, mean, read-out: Vz Mean) was 3.05 L/kg and the Tmax ([2]; plasma, MRS4322 0.2 mg/kg IV, individual animals) was 0.25 h. For the same compound, the AUCINF [2, 3] was 233 ng·h/mL and 401 ng·h/mL, the AUClast [2, 3] was 203 ng·h/mL and 307 ng·h/mL and the C0 [2, 3] was 286 ng/mL and 289 ng/mL. The Cl [2, 3] was 14.3 mL/min/kg and 8.31 mL/min/kg, the Cmax [2, 3] was 120 ng/mL and 163 ng/mL and the “Half Life” value [2, 3] was 4.82 h and 2.31 h and 3.13 h. For the same compound, the Vz [2, 3] was 2.86 L/kg and 2.25 L/kg.

— patent publication US12239654B2, “Compounds and methods for treating neurological and cardiovascular conditions” (Astrocyte Pharmaceuticals, Inc., priority 2016, dated 2025)
